# Laboratory results published in patent US20100086587A1, “HARD SHELL CAPSULE FORMULATIONS” (priority 2006, published 2010).
# Assay: Moisture loss or gain of filled capsules exposed to a 50% RH environment until equilibrium
# Format: physicochemical
# Conditions: 50% R.H. environment
# Protocol: An alternative method for evaluating the level of water required to provide a stable hygroscopic formulation involves the preparation of capsules containing different water contents and then quantifying moisture loss or gain when exposed to a 50% RH environment (middle of acceptable RH range for capsules 35% RH to 65% RH). Maltitol, a sugar which is also a hygroscopic excipient, was dissolved in water to produce several aqueous maltitol solutions of concentration 16, 18, 20, 22, 24, 26, 28, 30, 32, 34 and 36% water in maltitol. Both gelatin and HPMC capsules were filled with the various concentrations of solution and the capsules were sealed by banding. The capsules were then exposed to a 50% R.H environment and allowed the capsules to re-equilibrate.
# Weight loss (and water loss) ceased when the capsules shell content was in equilibrium with the capsule shell and with the 50% R.H. environment. The equilibrium water content in maltitol that produced stables capsules was approximately 14% water content for gelatin capsules and approximately 13% water content for HPMC capsules.
structure (smiles),measurement,setting,value
"OC[C@@H](O)[C@@H](O[C@H]1O[C@H](CO)[C@@H](O)[C@H](O)[C@H]1O)[C@H](O)[C@@H](O)CO [maltitol, Maltitol]",equilibrium water content in maltitol that produced stable capsules,HPMC capsules,approximately 13%
same,equilibrium water content in maltitol that produced stable capsules,gelatin capsules,approximately 14%
